Legend:
[1] = Blood plasma pharmacokinetics of midazolam for three administration systems (Example #1); details: for Cl (obs) / Vz (obs): not corrected for bio-availability; for bio-availability: mean (95% CI); for AUC(0-t): AUClast
Description: In this study, twelve healthy subjects, 4 male and 8 female, were studied.
In separate sessions, the subjects received 3.4 mg of midazolam by one of three different administration systems, these being: • (i) an intravenous administration system in which a midazolam formulation was intravenously administered; • (ii) a conventional nasal spray administration system in which a midazolam formulation was conventionally nasally administered using a spray pump as supplied by Ing Erich Pfeiffer GmbH (Radolfsee, Germany) which is specified to generate a liquid spray with a mean particle size of 43 μm, with 100 μl of the formulation being delivered to each nostril; and • (iii) the bi-directional administration system of the first-described embodiment, and incorporating the same spray pump as the conventional nasal spray administration system, in which a midazolam formulation was nasally administered, with 100 μl of the formulation being delivered to each nostril.
Each study session was six hours in duration, and the sessions were separated by at least one week.
The intravenous formulation was a commercial midazolam HCl formulation (1 mg/ml (free base)) as supplied by Alpharma Inc (New Jersey, USA).
The nasal formulation was an aqueous solution containing midazolam base (1.7% w/v), sulfobutylether-β-cyclodextrin sodium salt with a molar substitution of 6.2 (Captisol®) (14% w/v) as supplied by CyDex Inc (Kansas, USA), hydroxypropyl methylcellulose (0.1% w/v), benzalkonium chloride (0.02% w/v), ethylene diaminetetraacetic acid (0.1% w/v) and phosphoric acid (0.73% w/v). The pH of the formulation was adjusted to a pH of between 4.20 and 4.35 with sodium hydroxide.
Venous blood samples, each having a volume of 9 ml, were drawn just prior to administration and at 2, 5, 10, 15, 20, 25, 30, 35, 45, 60, 90, 120, 240 and 360 minutes after administration, in order to allow for a determination of the blood plasma concentration of midazolam.
The blood plasma concentration of midazolam was determined according to Martens et al.
Samples, spiked with diazepam as an internal standard, were alkalised and extracted by toluene containing 0.1% w/v amyl alcohol. The resulting organic phase for each of the samples was then evaporated and the residue for each of the samples was derivatized with TBDMSTFA (/tert/-Butyldimethylsilyl)-N-methyltrifluoroacetamide with 1% w/v tert-butyldimethylsilyllchloride) at 60 °C. After the excess of TBDMSTFA was evaporated, the residue for each of the samples was dissolved in ethyl acetate and analyzed in a gas chromatograph, in this embodiment an HP 5890 gas chromatograph equipped with an HP 5972 mass-spectrometry detector as supplied by Hewlett Packard Inc (USA). The midazolam and diazepam components were quantified by the mass ions 310 and 256, respectively.
In this study, the midazolam clearance, the volume of distribution, the elimination rate, the maximum plasma concentration Cmax, the time maximum plasma concentration Tmax, and the area under the curve AUC (linear trapezoidal rule) were calculated by computerized curve fitting using the Win-Nonlin Standard 4.1 as supplied by Pharsight Corporation (California, USA). The systemic clearance (Cl)=dose/AUCiv, the apparent nasal clearances (Cln)=dose/AUCn, and the respective bioavailabilities (Fx)=(AUCx/dosey)/(AUCy/dosex) were determined from the calculated values.
In the results, the data is given as a median (min-max) or a mean (95% confidence interval (CI)). Regression analysis and ANOVA were used as appropriate. A bi-variate correlation (Pearson) was used to determine associations between variables. A paired sample t-test was used for group comparisons.

[2] = Subjective sedation score on numeric rating scale (NRS) 0-10 after midazolam (Example #1); type: in vivo, human
Description: Subjective sedation was scored by a numeric rating scale (NRS) 0-10, where 0 is fully awake and 10 is falling asleep or as tired as you can imagine at 0, 2, 5, 10, 15, 20, 25, 30, 35, 45, 60, 90, 120 and 360 minutes after administration.

[3] = bi-directional nasal administration system, 3.4 mg, mean
[4] = both, human, plasma, inhaled or intranasal, 3.4 mg, bi-directional nasal administration system, mean
[5] = both, human, plasma, inhaled or intranasal, 3.4 mg, conventional nasal spray administration system, mean
[6] = both, human, plasma, iv, 3.4 mg
[7] = both, human, plasma, iv, 3.4 mg, intravenous administration system, mean
[8] = conventional nasal spray administration system, 3.4 mg, mean

**Q.** With `Cc1ncc2n1-c1ccc(Cl)cc1C(c1ccccc1F)=NC2` [midazolam] as the compound, how does the AUCinf [1, 3] read?
**A.** Its AUCinf is 5364 ng·min/mL.

**Q.** What about the “Cl (obs)” value [1, 3] of the same compound?
**A.** The value was 589 mL/min.

**Q.** What about the “Vz (obs)” value [1, 3] of the same compound?
**A.** The value was 98551 mL.

**Q.** And the bio-availability ([1]; bi-directional spray administration system vs intravenous)?
**A.** Its bio-availability is 0.69 (0.57, 0.81).

**Q.** What about the AUC(0-inf) ([1]; both, human, plasma, inhaled or intranasal, 3.4 mg) of the same compound?
**A.** Its AUC(0-inf) is 87.8 ng·h/mL.

**Q.** What about the AUC(0-t) [1, 4] of the same compound?
**A.** The AUC(0-t) was 76.9 ng·h/mL.

**Q.** And the AUC(0-t) [1, 5]?
**A.** Its AUC(0-t) is 77.1 ng·h/mL.

**Q.** What about the Cmax [1, 4] of the same compound?
**A.** The Cmax was 44 ng/mL.

**Q.** What about the Cmax [1, 5] of the same compound?
**A.** Its Cmax is 53 ng/mL.

**Q.** And the half-life ([1]; both, human, plasma, inhaled or intranasal, 3.4 mg, T1/2, bi-directional nasal administration system, mean)?
**A.** Its half-life is 119 min.

**Q.** And the half-life ([1]; both, human, plasma, inhaled or intranasal, 3.4 mg, T1/2, conventional nasal spray administration system, mean)?
**A.** Its half-life is 114 min.

**Q.** What about the Tmax [1, 4] of the same compound?
**A.** Its Tmax is 16 min.

**Q.** What about the Tmax [1, 5] of the same compound?
**A.** The Tmax was 15 min.

**Q.** And the AUC(0-inf) [1, 6]?
**A.** The AUC(0-inf) was 136 ng·h/mL.

**Q.** And the Vd [1, 6]?
**A.** Its Vd is 65.4 L.

**Q.** What about the clearance [1, 6] of the same compound?
**A.** The clearance was 451 mL/min.

**Q.** What about the AUC(0-t) [1, 7] of the same compound?
**A.** Its AUC(0-t) is 122 ng·h/mL.

**Q.** What about the Cmax [1, 7] of the same compound?
**A.** Its Cmax is 152 ng/mL.

**Q.** And the half-life ([1]; both, human, plasma, iv, 3.4 mg, T1/2, intravenous administration system, mean)?
**A.** Its half-life is 104 min.

**Q.** What about the Tmax [1, 7] of the same compound?
**A.** Its Tmax is 2.5 min.

**Q.** And the “Cl (obs)” value [1, 8]?
**A.** Its value is 551 mL/min.

**Q.** What about the “Vz (obs)” value [1, 8] of the same compound?
**A.** Its value is 90691 mL.

**Q.** What about the bio-availability ([1]; conventional spray administration system vs intravenous) of the same compound?
**A.** The bio-availability was 0.68 (037, 0.80).

**Q.** And the “CNS effect (sedation score as a function of blood plasma concentration)” value ([2]; bi-directional administration system compared with conventional nasal spray)?
**A.** Its value is “substantially greater CNS effect than the conventional nasal spray administration system”.

**Q.** What about the sedation scores ([2]; bi-directional administration system compared with intravenous, 3.4 mg, median NRS) of the same compound?
**A.** Its sedation scores is “equivalent to those of the intravenous administration system”.

**Q.** And the onset of action ([2]; bi-directional administration system compared with the other systems, 3.4 mg)?
**A.** Its onset of action is “considerably faster than the conventional nasal spray administration system”.

**Q.** What about the “ratio of peak CNS effect to Cmax relative to intravenous administration” value ([2]; bi-directional administration system, 3.4 mg) of the same compound?
**A.** Its value is “about 3.5 times”.

— US10478574B2, “Nasal administration” (OptiNose AS, priority 2006, dated 2019)
